Measurements reported in ChEMBL document CHEMBL1126232, “3-oxagranatane (3-oxa-9-azabicyclo[3.3.1]nonane) derivatives as highly potent serotonin 5-Ht3 receptor antagonists” (Bioorg Med Chem Lett, 1992).

Test system: not listed separately
Assay: pKa value was determined
Format: physicochemical
Conditions: not given

First: CN1C2CCC1CC(NC(=O)N1CC(C)(C)c3ccccc31)C2 (stereo not drawn)
Second: CN1C2COCC1CC(NC(=O)N1CC(C)(C)c3ccccc31)C2 (stereo not drawn)
The pKa of the first is higher: 9.4 for the first, 7.1 for the second.

Compound `CN1C2CCCC1CC(NC(=O)c1nn(C)c3ccccc13)C2` (stereo not drawn) [GRANISETRON] has a pKa of 9.1.

Organism: Rattus norvegicus
Assay: animal or person
Format: functional
Conditions: iv, read-out: ID50 (the source's name)
Description: Antagonistic activity towards serotonin 5-HT3 receptor was evaluated by inhibition of 5-HT evoked reflexes in rat on intravenous administration

First: COc1cc(N)c(Cl)cc1C(=O)NC1CC2COCC(C1)N2C (stereo not drawn)
Second: COc1cc(N)c(Cl)cc1C(=O)NC1CC2CCC(C1)N2C (stereo not drawn)
The ED50 of the first is 8.9-fold lower: 0.09 µg/kg for the first, 0.8 µg/kg for the second.

First: COc1ccccc1NC(=O)NC1CC2COCC(C1)N2C (stereo not drawn)
Second: COc1ccccc1NC(=O)NC1CC2CCC(C1)N2C (stereo not drawn)
The ED50 of the first is 2.3-fold lower: 1.1 µg/kg for the first, 2.5 µg/kg for the second.

First: COc1cc(N)c(Cl)cc1C(=O)NC1CC2CCCC(C1)N2C (stereo not drawn)
Second: COc1ccccc1NC(=O)NC1CC2CCCC(C1)N2C (stereo not drawn)
The ED50 of the first is 19-fold lower: 0.4 µg/kg for the first, 7.5 µg/kg for the second.

Going from `CN1C2CCC1CC(NC(=O)N1CC(C)(C)c3ccccc31)C2` (stereo not drawn) to `CN1C2COCC1CC(NC(=O)N1CC(C)(C)c3ccccc31)C2` (stereo not drawn), the ED50 falls from 0.7 µg/kg to 0.13 µg/kg (5.4-fold).

Going from `CN1C2CCC1CC(NC(=O)N1CCc3ccccc31)C2` (stereo not drawn) to `CN1C2COCC1CC(NC(=O)c1nn(C)c3ccccc13)C2` (stereo not drawn), the ED50 falls from 1.4 µg/kg to 0.16 µg/kg (8.8-fold).
